Laboratory results: article PMC4276521 (Biochemical pharmacology, 2014)
Values joined by “and” are separate entries in the source; they are usually repeats but may differ in a detail not shown here. Equal values may be shown once. Where a name gives a salt, the structure may show the parent alone. Read-outs that look alike come from different tables or passages of the source.

Experiments:
DRD2 [1] = target: T1, DRD2 (Homo sapiens, UniProt P14416)
DRD2 [2] = target: T1, DRD2; remark: listed apart in the source
DRD2 [3] = target: T1, DRD2; remark: listed apart in the source
DRD2 [4] = target: T1, DRD2; settings: HEK-AC5/D2 cells; percentage of dopamine's response, standard error in brackets
DRD2 [5] = target: T1, DRD2; test: cell-based

T1 sequence (P14416 whole entry, species assumed): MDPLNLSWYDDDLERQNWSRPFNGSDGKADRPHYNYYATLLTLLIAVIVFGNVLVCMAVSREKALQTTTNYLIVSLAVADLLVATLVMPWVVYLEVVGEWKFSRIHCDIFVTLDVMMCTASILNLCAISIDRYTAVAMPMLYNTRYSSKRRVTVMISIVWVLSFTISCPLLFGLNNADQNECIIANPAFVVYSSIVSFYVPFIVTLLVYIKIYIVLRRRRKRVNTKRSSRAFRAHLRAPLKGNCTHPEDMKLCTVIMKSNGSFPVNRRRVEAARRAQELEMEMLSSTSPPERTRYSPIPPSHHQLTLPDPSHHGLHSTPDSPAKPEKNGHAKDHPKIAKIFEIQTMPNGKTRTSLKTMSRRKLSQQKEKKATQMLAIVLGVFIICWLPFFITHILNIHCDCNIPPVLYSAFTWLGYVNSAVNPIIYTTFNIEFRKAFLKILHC

Structure (SMILES) | Gαi/o activation Max (DRD2 [1]) | Gβγ activation Max (DRD2 [2]) | DMR (AUC) Max (DRD2 [3]) | Gαi/o activation Max (DRD2 [1]; HEK-AC5/D2 cells, percentage of dopamine's response, standard error in brackets) | Gβγ activation Max (DRD2 [2]; HEK-AC2/D2 cells, percentage of dopamine's response, standard error in brackets) | Sensitization Max (DRD2 [4]) | DMR (AUC) Max (DRD2 [3]; HEK-D2 cells, percentage of dopamine's response, standard error in brackets) | EC50 (DRD2 [5]) [nM]
CCCN[C@H]1CCc2nc(N)sc2C1 [Pramipexole, pramipexole dihydrochloride] | 87 (±4) % | 98% and 98 (±5) % | 98 (±2) % |  |  |  |  | 
CCCN(CCC)CCc1cccc2c1CC(=O)N2 [Ropinirole, ropinirole hydrochloride] |  |  |  | 81 (±6) % | 70 (±4) % | 126 (±3) % | 100 (±2) % | 
CCCN(CCc1cccs1)[C@H]1CCc2c(O)cccc2C1 [Rotigotine, rotigotine hydrochloride] | 88 (±4) % | 79% and 79 (±4) % |  |  |  |  |  | 0.05
